Measured values from PMC3256188, “Novel Nonphosphorylated Peptides with Conserved Sequences Selectively Bind to Grb7 SH2 Domain with Affinity Comparable to Its Phosphorylated Ligand” (PLoS ONE, 2012).
“Also recorded” adds a separate entry of the source.

Columns and labels:
[1] = molecular target: T1, GFP-Grb7 SH2 domain and 41-mRLUC-3×Flag complex (Homo sapiens, UniProt Q14451); experiment: Competition immunoprecipitation, GFP-Grb7 SH2 domain and 41-mRLUC-3×Flag complex; assay type: binding
T1 construct: expressed in transfected cells; host or cells: HEK293T
T1 sequence (Q14451 425-532, one chain of several): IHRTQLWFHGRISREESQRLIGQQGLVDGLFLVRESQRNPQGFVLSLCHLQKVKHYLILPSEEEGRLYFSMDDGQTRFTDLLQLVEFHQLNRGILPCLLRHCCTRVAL
Text: To see whether the nonphosphorylated peptide could effectively compete with phosphorylated ligand for binding to the Grb7 SH2 domain, the phosphorylated ligand pY (1180) (DEEYEpY(1180)MNRRR), which was previously shown to interact with the Grb7 SH2 domain [6], and the nonphosphorylated 41-A ligand ([…]), which contains the first twenty-two amino acid-motif close to the N-terminus of peptide 41, were examine for their abilities to interfere with the GFP-Grb7 SH2 domain and 41-mRLUC-3×Flag complex using immunoprecipitation with anti-GFP antibody.
The phosphorylated ligand pY (1180) (DEEYEpY(1180)MNRRR) from the ErbB3 and the nonphosphorylated peptide 41-A ([…] RV) from nonphosphorylated peptide 41 were synthesized by the China Peptides Co., Ltd. The HPLC purification analysis and MS quality analysis reports were obtained.
HEK293T cells were washed 5 times with ice-cold PBS buffer and scraped off the plates into cell lysis buffer (1% Nonidet P-40, 0.02 M TRIS (pH 7.5), 0.15 M sodium chloride, 0.001 M EDTA, 0.5% sodium deoxycholate, 0.1% SDS and 0.001 M PMSF). Lysates were incubated on ice for 5 minutes, vortexed 2 times for 30 seconds each and centrifuged at 12,000 rpm for 15 minutes at 4°C. After centrifuging twice, the supernatant was incubated with anti-Flag antibody (1∶100, M20008M, Abmart, China) for 6–8 h at 4°C. Protein G agarose (40 µL) was added into 1 mL of the above mixture and coupled to the anti-Flag antibody for 3 h at 4°C. The immunoprecipitates were washed 2–3 times with PBS buffer (PH 7.4), and the sediments were diluted with 5×SDS electrophoresis buffer and heated at 97°C for 10 minutes. The proteins were separated by SDS-PAGE and transferred to PVDF membranes (IPVH00010, Millipore, USA). The membranes were incubated with anti-GFP antibody (1∶2000, P30010, Abmart, China) and goat anti-rabbit secondary antibody (1∶4000, M21002, Abmart, China) to identify target proteins. For the competition analyses, the immunoprecipitation complexes were mixed with anti-Flag antibody and different concentrations of the synthesized phosphorylated ligands or the nonphosphorylated ligands. The proteins were separated by SDS-PAGE, and the SH2 domain of Grb7 protein was analyzed using anti-GFP antibody. Western blot analysis was carried out using the Image J [37], the IC50 values were calculated by regression analyses using SPSS 17.0.

Grb7 SH2 domain [2] = molecular target: Grb7 SH2 domain; set-up: method as in earlier work; details: binding to Grb7 SH2 domain; calorimetric (title of ref 27); read-out: dissociation constant (Kd); cited from earlier work
Text: Many drugs are designed to target the SH2 domain of Grb7. […] This peptide also serves as a model for chemical drug de ...

[3] = tested on: SK-BR-3 breast cancer cells; experiment: MTS cell proliferation assay; assay type: cell-based
Protocol: For the cell proliferation assay, the anti-Grb7 antibody (N-20, Santa Cruz Biotechnology, USA) and the anti-Flag antibody (M20008M, Abmart, China) were used for the western blot, and MTS (Promega, USA) was used for the analysis of cell proliferation.
The MTS cell proliferation assay was performed to analyze the proliferation of SK-BR-3 breast cancer cells (Cell culture center of PUMC, China) according to the manufacturer's instructions (Promega, USA). SK-BR-3 cells at 70%–80% confluency were transiently transfected respectively with plasmids of 41-mRLUC-3×Flag or mRLUC-3×Flag and Mega Tran 1.0 (OriGene, USA). Beginning from 12 h after transfection, 400 µg/mL G418 (11811-023, Invitrogen, USA) was used to select for the transfected cells. The u-bottom 96-well microtiter plates (Corning, USA) were seeded with approximately 7.50×10^3 cells per well at 18 h after transfection. […] The absorbance at 492 nm of transfected cells and control DMEM medium was measured separately at 18 h, 24 h, 36 h, 48 h and 60 h after transfection on Synergy4 Multi-Mode Microplates Readers (BioTek, USA). The absorbance was adjusted by differences in the absorbance between cell culture medium and control medium without seeded cells. The data were analyzed by double-factor variance analysis using SPSS 17.0.

Grb7 SH2 domain [4] = experiment: Co-immunoprecipitation from transfected HEK293T cells; assay type: binding; details: HEK293T co-transfected with peptide-mRLUC-3×Flag and EGFP-Grb7 SH2, 36 h; anti-Flag IP, anti-GFP blot
Text: In the co-immunoprecipitation assay, the mRLUC fragment was generated by PCR amplification. The inserted sequence of the Grb7 SH2 domain was as follows: N- […]-C. This sequence was inserted at the C terminus of the EGFP tag. The sequence of peptide 10 was as follows: N-[…]-C. The sequence of peptide 41 was as follows: N-[…]-C. The sequence of peptide 10CM was as follows: N-[…]-C. The nonphosphorylated peptide and the mRLUC fragment were inserted at the N-terminus of the Flag tag. The mRLUC fragment was fused with the nonphosphorylated peptide so that they could be easily identifiable. The empty vector containing the mRLUC fragment was used as the negative control.
(§1) HEK293T cells at 70%–80% confluency were given fresh DMEM (high glucose) culture medium and transfected with plasmids using the calcium phosphate method. Samples were collected at 36 h after transfection.
HEK293T cells were washed 5 times with ice-cold PBS buffer and scraped off the plates into cell lysis buffer (1% Nonidet P-40, 0.02 M TRIS (pH 7.5), 0.15 M sodium chloride, 0.001 M EDTA, 0.5% sodium deoxycholate, 0.1% SDS and 0.001 M PMSF). […] The proteins were separated by SDS-PAGE, and the SH2 domain of Grb7 protein was analyzed using anti-GFP antibody. Western blot analysis was carried out using the Image J [37], the IC50 values were calculated by regression analyses using SPSS 17.0.

[5] = tested on: EYFP-tagged Grb7 SH2 domain; experiment: Bioluminescence Resonance Energy Transfer (BRET) in HEK293T cells; assay type: cell-based; details: 36 h after transfection, EYFP-Grb7 SH2 + mRLUC-tagged peptide, coelenterazine 5.9 µM, eighteen group ratios
Text: For the BRET assay, the EYFP fragment was generated by PCR amplification. The ErbB3-mRLUC plasmid was constructed by the Beijing Sino Biological Inc. The SH2 domain of Grb7 was fused to the EYFP fragment, and the nonphosphorylated peptides 10 and 41 were fused to the mRLUC fragment. The Grb7 SH2 domain sequence was inserted at the C-terminus of the EYFP tag.
as §1
In BRET, the Renilla luciferase (mRLUC) is fused to the candidate protein, and the green fluorescent protein mutant (EYFP) is fused to the target protein. Interactions between the two fused proteins bring the luciferase and the green fluorescent protein into close proximity, which promotes resonance energy transfer from mRLUC to EYFP [38]. Then EYFP is […] at 530 nm, and the emission is used to determine the binding between the two interacting proteins. In this study, HEK293T cells were collected at 36 h after transfection, 100 µL of mixed cell suspension was added to the u-bottom 96-well microtiter plates (Corning, USA) before measurement. The measurement of bioluminescence, with rasters of 460/40 nm and 518/20 nm, was performed on Synergy4 Multi-Mode Microplates Readers (BioTek, USA). The BRET reaction was initiated by 5.9 µM coelenterazine (Promega, USA). Data were analyzed by one-factor analysis of variance using SPSS 17.0.

Q: For “DEEYEpY(1180)MNRRR [pY (1180), phosphorylated ligand pY (1180) (DEEYEpY(1180)MNRRR) from the ErbB3, reference compound]”, which “interference with binding of the Grb7 SH2 domain to peptide 41” value (from here on “interference with binding”) ([1]; 0.0072 mM) is on record?
A: did not significantly interfere

Q: What about the “interference with binding” value ([1]; 0.036 mM) of the same molecule?
A: did not significantly interfere

Q: And the “interference with binding” value ([1]; 0.18 mM)?
A: nearly abolished

Q: And the “disruptive effect on the Grb7 SH2 domain/peptide 41 interaction” value ([1]; Figure 3A, overall, concentration not given)?
A: abolished the association between the Grb7 SH2 domain and nonphosphorylated peptide 41

Q: And the “binding affinity to the Grb7 SH2 domain, comparison of 41-A and pY (1180)” value ([1]; in vitro competition, in words)?
A: at least comparable binding affinities to the Grb7 SH2 domain

Q: What about the Kd (Grb7 SH2 domain [2]) of the same molecule?
A: ~1150 nM

Q: Which “binding to the Grb7 SH2 domain in the absence of competitor” value ([1]; in the absence of peptide pY (1180) and peptide 41-A, Figure 3A) does the source give for “N-VGTWTTRGPWCPCVAVGIPTQPTTSSEPSPPSNPPWDPGRVLLGRIVWPGLLALGIPTHHQNDTYNSPHAHPNRDP-C [peptide 41, nonphosphorylated peptide with two twenty-two residue motifs, 41-A and 41-B]” here?
A: could bind to the Grb7 SH2 domain

Q: And the “adjusted absorbance between transfected cell groups and between time points” value ([3]; double-factor variance analysis, n = 10, p<0.001, Figure 4B)?
A: Statistically significant differences existed in both of groups

Q: And the “pull-down of the Grb7 SH2 domain (co-immunoprecipitation)” value (Grb7 SH2 domain [4])?
A: pulled down the Grb7 SH2 domain; also recorded: co-immunoprecipitated

Q: What about the “BRET luminescence ratio of 530/480 nm” value [5] of the same molecule?
A: significantly stronger

B1: 41-mRLUC-3×Flag: fusion protein of peptide 41 with mRLUC and 3×Flag, expressed from transfected plasmid (protein)
chain: VGTWTTRGPWCPCVAVGIPTQPTTSSEPSPPSNPPWDPGRVLLGRIVWPGLLALGIPTHHQNDTYNSPHAHPNRDP
modifications: left off: mRLUC, C-terminal, kept | 3×Flag, C-terminal, kept
notes: fusion protein of peptide 41 with mRLUC and 3×Flag, expressed from transfected plasmid
Q: For B1, which “proliferation of transfected SK-BR-3 cells (MTS absorbance)” value ([3]; beginning from 24 h (measured 18, 24, 36, 48, 60 h after transfection), absorbance 492 nm, vs mRLUC-3×Flag control, p<0.01) is on record?
A: significantly slower than that of the mRLUC-3×Flag control group
